Data as given in patent US20260376283A1, “A METHOD IMPLEMENTING MORPHOLOGICAL CHANGES OF EXTRACELLULAR ORGANELLE VESICLES SO AS TO EXAMINE THE TRANSPORTING ACTIVITY OF MEMBRANE TRANSPORT PROTEINS AND OTHER RELATED METHODS” (PARIS SCIENCES ET LETTRES, priority 2023, published 2026).

Experiments:
Type in all cases: biochemical
[1] = tested on: Endoplasmic Reticulum extracellular organelle vesicle (SERCA pump); assay: ER vesicle response to CaCl2 compared with nucleus (Example 6); conditions: role: substrate, CaCl2 60 mOsm/L / 20 mOsm/L, ATP 100 μM, FIG. 8
Description: (§1) In this example, an Endoplasmic Reticulum extracellular organelle vesicle and a nucleus cell component are isolated together from a same cell with one micropipette, and visualized. ER extracellular organelle vesicle and nucleus cell component were both put in contact with CaCl2 (20 mOsm/L) and ATP (100 μM) during 5 minutes.
(§2) FIG. 8 represents Endoplasmic Reticulum extracellular organelle vesicle and nucleus cell component are maintained thanks one micropipette into a HKM diluted buffer (30 mOsm/L). The extracellular organelle vesicle and the nucleus cell component were respectively isolated thanks to ER and nucleus probes, over-expressed by COS7 cells, before organelle vesicle and nucleus extraction.
(§3) At t=0s, CaCl2 (60 mOsm/L) and ATP (100 μM) were added. Dotted line circle corresponds to the size of the endoplasmic reticulum vesicle before contacting with CaCl2.

[2] = tested on: Endoplasmic Reticulum extracellular organelle vesicle (SERCA pump); assay: SERCA specificity: ER vesicle response to CaCl2 (Example 5); conditions: role: substrate, CaCl2 30 mOsm/L, ATP 100 μM, FIG. 7
Description: (§4) In this example, an Endoplasmic Reticulum extracellular organelle vesicle and a mitochondria extracellular organelle vesicle are isolated simultaneously with micropipettes, and visualized. ER and mitochondria extracellular organelle vesicles were both put in contact with CaCl2 (30 mOsm/L) and ATP (100 μM) during one hour.
(§5) FIG. 7 represents Endoplasmic Reticulum extracellular organelle vesicle and mitochondria extracellular organelle vesicle are maintained thanks two micropipettes into a HKM diluted buffer (30 mOsm/L). These extracellular organelle vesicles were isolated thanks to ER and mitochondria resident proteins, over-expressed by COS7 cells, before organelle vesicles extraction.
(§6) At t=0s, CaCl2 (30 mOsm/L) and ATP (100 μM) were added. Dotted line circles all correspond to the size of the vesicle before contacting with CaCl2.

[3] = tested on: nucleus cell component (SERCA pump); assay: Nucleus cell component response to CaCl2 (Example 6); conditions: role: substrate, CaCl2 60 mOsm/L / 20 mOsm/L, ATP 100 μM, FIG. 8
Description: as §1, §2, §3

[4] = tested on: Ca^2+ pump of the Endoplasmic Reticulum; assay: Abnormal expression/activity of Ca2+ pump of ER by vesicle morphological change (Example 2)
Description: (§7) FIG. 3 A) represents an extracellular organelle vesicle of endoplasmic reticulum (ER) which is maintained thanks to a micropipette into a HKM diluted buffer (20 mOsm/L) as an extravesicular aqueous medium. This extracellular organelle vesicle has been isolated thanks to an ER resident protein (KDEL), over-expressed by COS7 cells, before organelle vesicles extraction.
At t=0s, CaCl2 (60 mOsm/L) and ATP (100 μM) were added. At t=20s, the ER extracellular organelle vesicle is deflated: it reached its minimum volume (Vi1) and its associated maximum fluorescence signal (Fi1).

[5] = tested on: mitochondria extracellular organelle vesicle; assay: SERCA specificity: mitochondria vesicle response to CaCl2 (Example 5); conditions: role: substrate, CaCl2 30 mOsm/L, ATP 100 μM, FIG. 7
Description: as §4, §5, §6

[6] = tested on: ER extracellular organelle vesicle; assay: Ca2+ internalization in ER extracellular organelle vesicle by Fluo8-AM fluorescence (Example 3); conditions: role: substrate, CaCl2 30 mOsm/L, ATP 100 μM, FIG. 5
Description: FIG. 5 represents an ER extracellular organelle vesicle which is maintained thanks to a micropipette into a HKM diluted buffer (20 mOsm/L). This extracellular organelle vesicle has been isolated thanks to an ER resident protein (KDEL), over-expressed by COS7 cells, before organelle vesicles extraction. Before organelle extraction, cells were incubated during 1 h with a fluorophore called “Fluo8-AM” to report for calcium volumic concentration in organelles thanks to green fluorescence emission.
At t=0s, CaCl2 (30 mOsm/L) and ATP (100 μM) were added. Fluorescence microscopy snaps are visualized on FIG. 5 and show calcium concentration inside the ER extracellular organelle vesicle during the experiment.

[7] = tested on: Endoplasmic Reticulum extracellular organelle vesicle (SERCA over-expressed); assay: ER vesicle with over-expressed SERCA, response to CaCl2 (Example 7); conditions: role: substrate, CaCl2 60 mOsm/L, ATP 100 μM
Text: (§8) In this example, an Endoplasmic Reticulum extracellular organelle vesicle and a plasma membrane cell component are isolated with micropipettes.
(§9) The SERCA protein is over-expressed in cell 1 on its native organelle, the endoplasmic reticulum. In cell 2, SERCA is relocalized by genetic construction on the plasma membrane cell component. This finally serves to isolate with micropipettes, one endoplasmic reticulum extracellular vesicle with SERCA extracted from cell 1 and one plasma membrane cell component enriched with SERCA deriving from cell 2.
(§10) These extracellular organelle vesicle and plasma membrane cell component were isolated thanks to ER and plasma membrane protein probes, over-expressed by COS7 cells, before organelle vesicle and plasma membrane cell component extraction.
(§11) ER extracellular vesicle and plasma membrane cell component were both put in contact with CaCl2 (60 mOsm/L) and ATP (100 μM) during 5 minutes.
(§12) At t=0s, CaCl2 (60 mOsm/L) and ATP (100 μM) were added.

[8] = tested on: plasma membrane cell component enriched with SERCA; assay: Plasma membrane cell component enriched with SERCA, response to CaCl2 (Example 7); conditions: role: substrate, CaCl2 60 mOsm/L, ATP 100 μM, SERCA relocalized
Text: as §8, §9, §10, §11, §12

[9] = tested on: ion pump SERCA localized on Endoplasmic Reticulum vesicles; assay: Ca2+ pump transporting activity by morphological change (deflation/re-swelling) of ER extracellular organelle vesicles (Example 1)
Description: An initial HKM buffer was prepared with 50 mM Hepes (known as 2-[4-(2-hydroxyethyl)piperazin-1-yl]ethanesulfonic acid), 120 mM potassium acetate, and 1 mM MgCl2 (in Milli-Q water) at pH 7.4. Said initial HKM buffer has an osmolarity of 280±15 mOsm/L.
Then, a membrane tension is applied on cells so as to produce extracellular organelle vesicles without lysing them. At that step, the extracellular organelle vesicles are released (or produced) thanks to the lysis and the removal of the plasma membrane. The membrane tension is carried out by micro-manipulation of the cells under confocal microscope thanks to a micropipette aspiration technique. Micropipette radius is around 1 μm. Thanks to a slight aspiration, a bilayer tongue of the plasma membrane was sucked into the micropipette. The aspiration is then increased at an approximate rate of 10 mbar/min, causing a proportional increase in the bilayer surface tension. At a certain applied tension (e.g. surface tension<0.75 mN/m), the plasma membrane ruptured thanks to a pore opening in the plasma membrane and the extracellular organelle vesicles are released (or extracted).
After extraction, one or more extracellular organelle vesicles are isolated using a micropipette. The micropipettes are used to hold a vesicle during the following methods of the present invention. Before the addition of molecules (ions, sugars or drug molecules), an acquisition is launched to observe the initial size of the vesicle.
Once the acquisition is started, the extracellular organelle vesicle, held by the micropipette is passed through an aqueous solution containing CaCl2 (60 mOsm/L) and ATP (100 μM). Contacting calcium ions with said extracellular organelle vesicle increases the osmolarity of the extravesicular aqueous medium. […] This innovative process allows to examine the transporting activity of the ion pump SERCA localized on Endoplasmic Reticulum vesicles.
as §7, with “1” for “3”
At t=0s, CaCl2 (60 mOsm/L) and ATP (100 μM) were added. At t=20s, the ER extracellular organelle vesicle is deflated: it reached its minimum volume (Vi1) and its associated maximum fluorescence signal (Fl1).
Once the acquisition is started, the ER extracellular organelle vesicle, held by the micropipette is passed through an aqueous solution containing sucrose (60 mOsm). […] Sucrose can thus be used as a control or reference in the method of the present invention.

[10] = role: substrate, CaCl2 60 mOsm/L, ATP 100 μM, FIG. 3
[11] = role: substrate, CaCl2 60 mOsm/L, ATP 100 μM, FIG. 1

## [Ca+2].[Cl-].[Cl-] [CaCl2]
[1]
  ER vesicle volume 5 min after contacting: exhibits a bigger volume as its initial one
[2]
  ER vesicle volume 1h after contacting: exhibits the same volume as its initial one
[3]
  nucleus cell component response 5 min after contacting: has deflated with no re-swelling
[4]; [10]
  time at which vesicle is deflated to minimum volume (Vi1) and maximum fluorescence (Fi1): 20 s
  time at which vesicle re-swells to final volume and fluorescence (Vf and Ff): 90 s
[4]; role: substrate; CaCl2 60 mOsm/L; ATP 100 μM; FIG. 3 B)
  vesicle volume at t=300s versus initial state: reached a higher volume than the initial state
[5]
  mitochondria vesicle volume 1h after contacting: has deflated
[6]
  internalization in the ER extracellular organelle vesicle: internalized in the ER extracellular organelle vesicle
[6]; cells incubated 1 h with Fluo8-AM
  Fluo8-AM fluorescence signal (calcium concentration inside vesicle): Fluorescence signal is rising after addition of CaCl2
[7]
  ER vesicle volume 5 min after contacting: exhibits a bigger volume as its initial one
[8]
  plasma membrane cell component response 5 min after contacting: has deflated
[9]; role: substrate, 60 mOsm/L, following minutes, CaCl2 with ATP (100 μM), sucrose as control
  re-swelling process of vesicle: a re-swelling process is gradually observed
[9]; role: substrate, CaCl2 60 mOsm/L with ATP (100 μM), or sucrose 60 mOsm without ATP stated, vesicle internal 20 mOsm/L, COS7 ER vesicle
  deflation of vesicle on contacting: the vesicle deflates in a few seconds
[9]; [11]
  time at which vesicle is deflated to minimum volume (Vi1) and maximum fluorescence: 20 s
  time at which vesicle re-swells to final volume and fluorescence (Vf and Ff): 90 s
[9]; role: substrate; CaCl2 60 mOsm/L; ATP 100 μM; FIG. 1 B)
  swelling state of vesicle at t=100s: the vesicle has almost reached its initial state of swelling
[9]; role: substrate, sucrose as reference compound, FIGS. 1 and 2
  Vf/Vi1 and Vf/Vi versus reference ratio (transporting activity of SERCA): Vf/Vi1>Vf,ref/Vi1,ref, and Vf/Vi>Vf,ref/Vi,ref
